Molecules are shown by their SMILES.

A short description of data set [1]: Soil mobility (leaching through 4 cm top soil column). In kind it is physicochemical.
Description: The following soil mobility test was designed to establish the leaching of CVTMGMV and free CV in a soil column. […] One mL aliquots of CVTMGMV or free CV (the concentration was 100 mM normalized to the drug concentration) were applied atop of the soil columns, followed by 50 elution fractions of 300 μL DI water. Each collected elution fraction was centrifuged for 10 min at 12,000 rpm to precipitate remaining soil particles. The supernatant was subsequently analyzed by UV-vis spectroscopy (see above).
A soil mobility test was designed to establish the leaching of CVTMGMV and free CV in soil. Briefly, top soil was packed in a plastic column up to a height of 4 cm and saturated with deionized (DI) water. CVTMGMV or free CV was applied atop the soil columns, followed by DI water. Fractions were collected from the soil column, purified, and analyzed by UV-vis spectroscopy for the presence of TMGMV and CV. The λ260 (RNA) and λ280 (CP) wavelengths were monitored to quantify the amount of TMGMV that leached through the soil.
Data set [2] relates to C. elegans. The data set can be described thus: C. elegans motility assay in liquid culture. In kind it is in vivo, Caenorhabditis elegans. The method, then:
OP50-1 E. coli and C. elegans strain N2 were provided by the Caenorhabditis Genetics Center (CGC) from the University of Minnesota, which is funded by NIH office of Research Infrastructure Programs P40 OD010440. Nematodes were cultured using 100 mm×15 mm sterile polystyrene Petri dishes (FB0875712, Fisher). […] Nematodes were then cultured on the OP50-1 E. coli plates at 22° C. […] OP50-1 E. coli pellet stocks were resuspended in S basal and added to the liquid culture to provide a food source to the nematodes.
Bioavailability of CVTMGMV and free CV to C. elegans was investigated in liquid culture (see above). 50 Nematodes were added to each well of a 24-well culture plate to a final volume of 1 mL. […] The percent of affected nematodes (sum of the nematodes on scale (2) and (3)) as a function of time and the effective concentration (EC50) were determined comparing free CV, TMGMV, and CVTMGMV.
Bioavailability of CVTMGMV and free CV in Caenorhabditis elegans (C. elegans) was investigated in liquid culture. C. elegans nematode motility was classified as either (1) totally immobilized, (2) impaired motility, or (3) […] nematodes. To illustrate the data that were collected, a series of snap shots of C. elegans incubated with no treatment, 10 μM of CV, and 10 μM of CVTMGMV were taken every second for 60 s. […] Five nematodes were selected in each treatment regime and pseudocolored to illustrate their motility.
At specific time points, nematodes were observed under a white light microscope, and the percent of affected nematodes (sum of the nematodes on scale (2) and (3)) was quantified as a function of time. The effective concentration (EC50), defined as the concentration of CV at which half of the maximum immobilization of C. elegans was reached, was determined for free CV and CVTMGMV (FIGS. 5D-G).

For data set [3] the following is noted: ref: PubChem CID 11057; cited from earlier work.
The nature of data set [4]: CV release profile from CVTMGMV, dialysis-based assay. In kind it is physicochemical. As to conditions: 10 mM KP buffer.
Description: The release of CV from TMGMV was evaluated using a dialysis-based assay.
Next, we evaluated the release profile of CV from the TMGMV nanocarrier. […] We tested the release profile at room temperature and 4° C. to evaluate two extreme upper soil thermal conditions. Sodium acetate (pH 5.2) and PBS (pH 7.4) buffer solutions were chosen to mimic the acidic and neutral soil environments, respectively. Diffusion of CV from CVTMGMV was also evaluated in KP (pH 7.8) buffer, which was used during loading and storing conditions of the sample. Free CV, in a concentration matched to the concentration and number loaded into TMGMV, was also dialyzed in KP buffer (pH 7.8) at 4° C. as a positive control.

With `CN(C)c1ccc(C(=C2C=CC(=[N+](C)C)C=C2)c2ccc(N(C)C)cc2)cc1` [CV, hexamethyl parparosaniline chloride], the “eluted concentration of CV, times lower than CVTMGMV” value in data set [1] was found to be 3.6 times. Besides, the “incubation time to maximum efficacy” value in data set [2] (1 μM) and in data set [2] (10 μM) was 6 h each time. Also, the nematodes paralyzed/dead result in data set [2] (1 μM, within the first hour) is “about 15%”; in data set [2] (10 μM, within the first hour), “about 30%”; in data set [2] (100 μM, within 1 h, 22° C.) it was “Sixty”. Further, the “motility by time lapse imaging” value in data set [2] (10 μM, after 3 h of incubation) is on record as “severe motility impairment”. The Emax at 1 µM in data set [2] (Caenorhabditis elegans, 6 h, read-out: maximum efficacy (nematodes affected)) was about 25%. Moreover, in data set [2] (Caenorhabditis elegans, 24 h, read-out: EC50 (concentration of CV at half of maximum immobilization of C. elegans)), the EC50 was 3.7 µM. Further, the Emax at 10 µM in data set [2] (Caenorhabditis elegans, read-out: maximum efficacy (nematodes affected)) is about 50%. Moreover, the “effect on nematode motility vs untreated population” value in data set [2] (doses lower than 1 μM) is “no significant effect on nematode motility”. The Koc in data set [3] is 6.1×10^5. The “time to 50% of CV released/dialyzed” value in data set [4] (pH 7.8, 4° C. (storing conditions)) is at most 1.6 h. For the same compound, in data set [4] (pH 7.8, 4° C., dialysis over 72 h), the “time to complete release of CV” value was under 18 h.

The values above are taken from patent US12599141B2, “Rod-shaped plant viral nanoparticles or virus-like particles for agricultural applications” (priority 2016, dated 2026).
